Assay results reported in patent US12331093B2, “Fusion polypeptides for metabolic disorders” (BEIJING QL BIOPHARMACEUTICAL CO., LTD., priority 2021, dated 2025).

What was measured:
[1] = Food intake and body weight reduction in DIO mice; format: in vivo, C57BL/6 mice; conditions: 10 nmol/kg QD
Procedure: 22 week old DIO male C57BL/6 mice (˜50 g) were injected once every other day (Q2D) subcutaneously with designated GLP-1 polypeptide conjugates (i.e., Molecule 012) for 25 days. Food intake and body weight were measured twice a week and fasting blood glucose was measured once a week. Five animals were used for each treatment group. Body weight and fasting blood glucose was monitored for each individual animal, but food intake for each group animals was measured together. Day 1 and Day 25 are first day and last day of molecule dosage. Data are indicated as mean values and standard error (SEM) or pooled values. Statistical analysis was performed by One-way ANOVA. Body weight reduction on Day 25 is calculated by −1*(% BW loss−% BW loss of vehicle group); Cumulative food intake reduction is calculated by −100*(cumulative food intake−cumulative food intake of vehicle)/cumulative food intake of vehicle.

human beta-Klotho = target: T1, human beta-Klotho (Homo sapiens, UniProt Q86Z14); assay: In vitro FGF21 activity, p-ERK levels in HEK293 cell line overexpressing human beta-Klotho; format: cell-based; conditions: compared with YH-dual
T1 construct: expressed in transfected cells; host or cells: HEK293 cell line
Procedure: The in vitro FGF21 activities of the fusion protein were assessed using a HEK293 cell line overexpressing human beta-Klotho. Tested fusion protein conjugates were measured at 400 nM top concentration with 4-fold serial dilutions in the presence of 1% HSA. After cells were treated with fusion protein conjugates for 12 mins, p-ERK levels were measured by p-ERK kit (Cisbio, 64ERKPEH).
The activity of each fusion protein was represented by EC50, derived from non-linear regression analysis.

[2] = Metabolic parameters in DIO animal model, 21 days; format: in vivo, C57BL/6 mice; conditions: DIO mice, QD subcutaneously, FIG. 4B
Procedure: 16 week old DIO male C57BL/6 mice (35˜40 g) were injected once daily (QD) subcutaneously with designated GLP-1/FGF21 conjugates (i.e., MLC #9, MLC #14, MLC #16 and MLC #17) for 21 days. Food intake and body weight were measured once everyday and non-fasting blood glucose was measured once every three days. Five animals were used for each treatment group. Body weight and blood glucose was monitored for each individual animal, but food intake for each group of animals was measured together. Day 1 and Day 21 are first day and last day respectively of the treatment. Terminal blood was collected and EDTA-K3 plasma was prepared and frozen at −80° C. for biomarker measurement (LDL-C, TC, TG, ALT, insulin, adiponectin). Liver and adipose tissue were also collected and frozen in liquid nitrogen and store at −80° C. Data are indicated as mean values and standard error (SEM) or pooled values. Statistical analysis was performed by One-way ANOVA. Body weight reduction on Day 21 is calculated by −1*(% BW loss−% BW loss of vehicle group); Cumulative food intake reduction is calculated by −100*(cumulative food intake−cumulative food intake of vehicle)/cumulative food intake of vehicle.

| Substance | Body weight reduction (% reduction compared to vehicle) (Day 11) [1] [%] | Cumulative food intake reduction (% reduction compared to vehicle) (Day 11) [1] [%] | FGF21 efficacy (FIGS. 2A and 2B) (human beta-Klotho) | non-fasting glucose level [2] [mmol/L] |
| --- | --- | --- | --- | --- |
| Control#2: GLP1(del7-8, 22E, 36G)-(GAQP)5-ALB8-(GAQP)10-FGF21 (121Q, 168L, 171G, 180E), SEQ ID NO: 72, GLP1 dead [reference compound] | 21.7 | 19.1 |  |  |
| Control#6: GLP1(del7-8, 22E, 36G)-(GAQP)5-ALB8-(GAQP)-FGF21 (121Q, 168L, 171G, 180E), SEQ ID NO: 78, GLP1 dead [reference compound] | 24.6 | 13.1 | significantly higher FGF21 efficacy than YH-dual |  |
| Semaglutide [reference compound] |  |  |  | 7.5 to 10 |
